From PubChem BioAssay (NCI)
Where “and” joins values, the source holds several entries; their conditions need not be identical. Equal values may be shown once.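 Cells were grown in 96-well plates and exposed to each compound for 48 hours at five concentrations; endpoints were interpolated linearly between bracketing concentrations, or set to the highest concentration if not reached. Here, GI50 denotes the concentration required for 50% inhibition of growth. At the TGI there is no net growth.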

What was measured:
Experiment in all cases: inhibition of tumour cell growth, NCI panel, 48 h
[1] = system: IGROV1 ovarian
[2] = system: UACC-257 melanoma
[3] = system: ACHN renal
[4] = system: UO-31 renal
[5] = system: NCI-H23 lung
[6] = system: EKVX NSCLC
[7] = system: OVCAR-8 ovarian
[8] = system: DU-145 prostate
[9] = system: U251 CNS
[10] = system: HOP-92 NSCLC

Compound	GI50 [1]	TGI [1] [µM]	GI50 [2]	TGI [2] [µM]	GI50 [3]	TGI [3] [µM]	GI50 [4]	TGI [4] [µM]	GI50 [5] [µM]	TGI [5] [µM]	GI50 [6] [µM]	TGI [6] [µM]	GI50 [7]	TGI [7] [µM]	GI50 [8]	TGI [8] [µM]	GI50 [9]	TGI [9] [µM]	GI50 [10] [µM]	TGI [10] [µM]
ClCc1ccccc1Cn1cnc2nc(Cl)nc(Cl)c21	1.78 µM	3.47	1.6 µM	5.22	0.209 µM	0.609	1.26 µM	2.52	2.21	7.14	0.62	1.54	2.54 µM	8.88	0.548 µM	1.33	0.414 µM	1.47	–	–
O=C(COc1ccccc1)NNc1ccccc1	> 300 µM	> 300	–	–	12.5 µM and 13.9 µM	> 300	10.3 µM and 20.1 µM	> 300	> 300	> 300	–	–	> 56.1 µM and 58.3 µM	> 300	> 300 µM	> 300	195 µM	> 300	71	216
c1cc[c]([Ge]([O]c2cccc3cccnc23)([c]2ccccc2)[c]2ccccc2)cc1	3.1 µM	10.3	3.94 µM	14.5	8.83 µM	20.8	11.5 µM	23.7	2.96	8.16	3.42	12.9	3.25 µM	10.6	–	–	3.83 µM	13.4	12.4	25.5
O=C1OC2(c3ccc(O)cc3Oc3cc(O)ccc32)c2cccc3cccc1c23	19.1 µM	57.4	23.6 µM	67.2	16.7 µM	44	17.1 µM	> 100	20	49.9	–	–	17.4 µM	36.9	18.9 µM	36.9	18.1 µM	39.3	19	97.6
Clc1cc(Br)ccc1-c1ccc(CNCC2CCNCC2)o1	1.9 µM	3.86	1.85 µM	3.51	1.93 µM	3.66	1.66 µM	3.24	3.43	13.6	–	–	2.19 µM	5.15	1.75 µM	3.21	2.17 µM	4.03	1.4	4.9
COc1ccc2cc3c4cc(OC)c(OC)cc4ccn3c2c1	–	> 100	–	> 100	–	> 100	–	> 100	–	> 100	–	> 100	–	> 100	–	–	–	> 100	–	> 100
COC(=O)[C@H](Cc1cn(C)cn1)NC(=O)[C@H](CC(C)C)NC(=O)Nc1cc(C(F)(F)F)cc(C(F)(F)F)c1	4.63 µM	> 10	–	–	> 10 µM	> 10	> 10 µM	> 10	> 10	> 10	–	–	9.54 µM	> 10	> 10 µM	> 10	> 10 µM	> 10	> 10	> 10
Cc1nc2ccccc2c(=O)n1/N=C(\N=Nc1ccccc1)c1ccccc1Cl	–	> 100	–	> 100	–	> 100	–	> 100	–	> 100	–	> 100	–	> 100	–	–	–	> 100	–	64.2
COc1cc2c3c(n(CCCN=[N+]=[N-])c(=O)c2cc1OC)-c1ccccc1C3=O	–	–	–	–	1.21 µM	4.65	> 100 µM	> 100	3.23	21.8	> 100	> 100	5.68 µM	> 100	28 µM	> 100	1.61 µM	24.5	7	68.9
CC(=O)OCC1OC(SC2=N/C(=C\c3ccc(Br)s3)C(=O)N2c2ccccc2)C(OC(C)=O)C(OC(C)=O)C1OC(C)=O (stereo unspecified)	87.4 µM and 41.7 µM	> 100	> 100 µM and 42.5 µM	> 100	–	> 100	71.4 µM and 32.7 µM	> 100	–	> 100	–	> 100	27.9 µM and 70.3 µM	> 100	> 100 µM and 42.8 µM	> 100	28 µM and 63.1 µM	> 100	–	–
Clc1ccc(-c2cnc3c(-c4ccnc(N5CCNCC5)c4)cnn3c2)cc1	3.34 µM	11.6	2.08 µM	3.82	–	–	1.61 µM	3.59	1.99	3.66	1.83	3.5	2.21 µM	4.31	1.64 µM	3.02	1.89 µM	3.51	–	–
COc1ccc(C2c3ccc4ccccc4c3Oc3ncn(CCCn4ccnc4)c(=N)c32)cc1OC (stereo unspecified)	6.04 µM	21.8	3.07 µM	11.4	4.42 µM	16.2	3.75 µM	16.1	6.49	22.4	–	–	3.16 µM	11.6	5.49 µM	18.2	2.36 µM	7.69	1.3	6.64
CCCCN(CCCC)P(=O)(Oc1ccccc1)Oc1ccccc1	–	–	8.04 µM	22.4	5.78 µM	19.3	–	–	4.56	17.7	3.39	17.2	11.1 µM	27.4	11.1 µM	24	5.59 µM	19.1	–	–
O/N=C1/CCCC/C1=C\c1ccc(Cl)c(Cl)c1	–	> 100	–	–	–	71.8	–	46.2	–	> 100	–	> 100	–	> 100	–	–	–	38.9	–	–
O=CCCn1[nH]c(=O)ccc1=O	–	> 100	–	> 100	–	> 100	–	> 100	–	> 100	–	> 100	–	> 100	–	–	–	> 100	–	> 100
O=C1CCCc2ccc([N+](=O)[O-])c(O)c21	–	> 100	–	> 100	–	> 100	–	> 100	–	> 100	–	> 100	–	> 100	–	–	–	> 100	–	> 100
